The values that follow are results of earlier work, collected in patent publication US12435094B1, “Methods of preparing isomers, analogs, and synthetic derivatives from akuamma seeds” (priority 2024, dated 2025).

Data set [1] relates to animal models of antinociception. Particulars: background statement, no data shown.
Data set [2] deals with mu opioid receptor (μOR) (Homo sapiens, UniProt P35372). The conditions noted are these: background statement, no data shown.
Chain of mu opioid receptor (μOR) (P35372 whole entry, species assumed): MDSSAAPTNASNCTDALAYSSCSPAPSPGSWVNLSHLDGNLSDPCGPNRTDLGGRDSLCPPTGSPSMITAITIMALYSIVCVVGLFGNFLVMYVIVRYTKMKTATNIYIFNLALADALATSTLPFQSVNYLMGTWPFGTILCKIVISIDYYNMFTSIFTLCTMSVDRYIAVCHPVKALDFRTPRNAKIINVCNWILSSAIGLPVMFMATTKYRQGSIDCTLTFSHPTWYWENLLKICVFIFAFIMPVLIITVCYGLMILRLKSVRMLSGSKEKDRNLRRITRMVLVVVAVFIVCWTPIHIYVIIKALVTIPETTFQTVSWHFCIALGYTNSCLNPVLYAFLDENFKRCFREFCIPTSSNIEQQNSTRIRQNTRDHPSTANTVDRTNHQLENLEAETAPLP

In the case of `C/C=C1/CN2CC[C@@]34c5ccccc5N(C)[C@]35OCC4(C(=O)OC)[C@@H]1C[C@H]25` [pseudoakuammigine, Pseudoakuammigine], the “effects in animal models of antinociception” value in data set [1] is “minimal effects”. In addition, the “agonism of the mu opioid receptor (μOR)” value in data set [2] was “weak agonists”.
As to Akuammine, in data set [1], the “effects in animal models of antinociception” value was “minimal effects”. Besides, the “agonism of the mu opioid receptor (μOR)” value in data set [2] is on record as “weak agonists”.
